{
  "source": "paper PMC11123841",
  "about": "“Discovery and Synthesis of Hydroxy-L-Proline Blockers of the Neutral Amino Acid Transporters SLC1A4 (ASCT1) and SLC1A5 (ASCT2)” (Molecules, 2024)",
  "key": {"SLC38A4 (ATA3)": {"molecular_target": "T1, SLC38A4 (ATA3) (Homo sapiens, UniProt Q969I6)", "T1 construct": "expressed in transfected cells; host or cells: Xenopus laevis oocytes (cRNA injection)", "T1 sequence (Q969I6 1-547)": "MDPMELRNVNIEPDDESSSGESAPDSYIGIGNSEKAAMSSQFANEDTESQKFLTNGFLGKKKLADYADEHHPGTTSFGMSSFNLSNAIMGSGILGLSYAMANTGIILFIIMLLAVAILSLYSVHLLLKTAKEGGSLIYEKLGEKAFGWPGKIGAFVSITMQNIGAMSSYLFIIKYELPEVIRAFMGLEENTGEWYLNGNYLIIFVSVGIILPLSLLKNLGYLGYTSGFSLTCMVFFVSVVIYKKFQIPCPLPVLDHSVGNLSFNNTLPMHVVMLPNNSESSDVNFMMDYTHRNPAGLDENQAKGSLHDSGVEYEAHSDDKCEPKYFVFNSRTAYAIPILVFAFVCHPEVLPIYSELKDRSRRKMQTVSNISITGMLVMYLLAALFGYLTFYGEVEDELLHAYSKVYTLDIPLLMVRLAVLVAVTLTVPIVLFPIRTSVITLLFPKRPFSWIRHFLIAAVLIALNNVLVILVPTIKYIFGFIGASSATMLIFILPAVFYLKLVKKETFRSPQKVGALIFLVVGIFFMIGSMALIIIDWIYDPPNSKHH", "test": "TEVC electrogenic coupled currents in oocytes", "assay_type": "cell-based", "conditions": "100 µM L-alanine, 3 µM BPOHP", "experimental": "(§1) BPOHP activity was evaluated against the glutamate transporters paralogs within the SLC1A gene family (SLC1A 1–3) as well as at neutral amino acid transporters that share common ligand substrates with the SLC1 family including SLC38A1,2, and 4 (ATA1, ATA2, ATA3) and heteromeric transporters SLC7A10+SLC3A2 (asc-1/4f2). […] Finally, radiolabeled [^3H]D-serine uptake was used to assess the electroneutral SLC7A10+SLC3A2 transporter, in which 10 µM BPOHP had no effect (Figure S3).\n(§2) Uptake was halted by washing 3 times with 4 °C ND96 buffer. Oocytes were then lysed in 0.1% Triton X-100, and radioactivity was counted via liquid scintillation. Dose response curves were generated by fitting fractional inhibition (I) to the expression I = Imax × [inhibitor]/([inhibitor] + IC50).\n(§3) Two-electrode voltage clamp (TEVC) transporter currents were recorded with a GeneClamp 500 amplifier and Digidata 1320A analog–digital interface (Molecular Devices, San Jose, CA, USA). […] Data were acquired with Axograph (v1.7.6) and LabChart (v7) and analyzed with Kaleidagraph software (v4.1) (Synergy, Reading, PA, USA). Uncoupled anion currents associated with the transport of substrate and block of SLC1A4 or SLC1A5 mediated leak conductance were recorded in the presence of Ringer with 50% substitution of NaCl by NaSCN to amplify the non-transported anion conductance. […]"}, "SLC38A1 (ATA1)": {"molecular_target": "T2, SLC38A1 (ATA1) (Homo sapiens, UniProt Q9H2H9)", "T2 construct": "expressed in transfected cells; host or cells: Xenopus laevis oocytes (cRNA injection)", "T2 sequence (Q9H2H9 1-487)": "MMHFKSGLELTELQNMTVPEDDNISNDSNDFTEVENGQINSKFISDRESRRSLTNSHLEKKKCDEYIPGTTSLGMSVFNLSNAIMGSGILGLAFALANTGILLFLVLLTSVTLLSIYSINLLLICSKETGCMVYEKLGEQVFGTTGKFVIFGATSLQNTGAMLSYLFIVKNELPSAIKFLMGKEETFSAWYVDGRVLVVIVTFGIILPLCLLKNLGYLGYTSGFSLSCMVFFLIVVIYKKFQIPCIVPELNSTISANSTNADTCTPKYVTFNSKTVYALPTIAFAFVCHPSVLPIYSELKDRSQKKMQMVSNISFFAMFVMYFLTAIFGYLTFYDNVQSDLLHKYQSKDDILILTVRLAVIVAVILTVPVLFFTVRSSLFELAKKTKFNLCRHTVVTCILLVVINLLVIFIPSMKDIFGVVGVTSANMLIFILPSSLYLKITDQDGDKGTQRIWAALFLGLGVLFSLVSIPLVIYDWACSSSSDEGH", "test": "TEVC electrogenic coupled currents in oocytes", "assay_type": "cell-based", "conditions": "100 µM L-alanine, 3 µM BPOHP", "experimental": "as §1, §2, §3"}},
  "note": "“Also recorded” adds a separate entry of the source.",
  "data": [
    {"smiles": "O=C(O)[C@H]1NC[C@@H](OCc2ccc(-c3ccccc3)cc2)[C@@H]1O", "note": "[14e]", "values": [
      {"measurement": "block of L-alanine current", "setting": "SLC38A4 (ATA3)", "value": "no effect; also recorded: no discernible block; also recorded: no inhibition was detected"},
      {"measurement": "block of L-alanine current", "setting": "SLC38A1 (ATA1)", "value": "no effect; also recorded: no discernible block; also recorded: no inhibition was detected"}
    ]}
  ]
}
